The source of these data is PubChem BioAssay (NCI).

Test systems include RPMI-8226 leukemia; CCRF-CEM leukemia; SR leukemia; ACHN renal; SK-MEL-5 melanoma; NCI/ADR-RES ovarian; COLO 205 colon; OVCAR-5 ovarian; HL-60(TB) leukemia; SK-OV-3 ovarian.
Test in all cases: NCI-60 cell line screen, 48 h

Several values for one entry are separate records, joined by “and”; a condition that tells them apart may be missing. Identical values can stand only once.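 1) Cells in 96-well plates. 2) Compound, 48 h, 5 concentrations. 3) Linear interpolation between surrounding doses. 4) Unreached endpoint = highest concentration. The concentration for 50% growth inhibition is given as GI50. TGI: concentration producing complete growth inhibition.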

For the compound `CO[C@H]1C=CO[C@@]2(C)Oc3c(C)c(O)c4c(O)c(c(CN5CCN(C)CC5)c(O)c4c3C2=O)NC(=O)/C(C)=C\C=C[C@H](C)[C@H](O)C(C)[C@@H](O)C(C)[C@H](OC(C)=O)[C@@H]1C` (stereo partly specified), the TGI is over 87.4 µM with RPMI-8226 leukemia; 22.3 µM with CCRF-CEM leukemia; 35.5 µM with SR leukemia; over 100 µM in the experiment with ACHN renal; 56.4 µM with SK-MEL-5 melanoma; over 100 µM in the experiment with NCI/ADR-RES ovarian. Further, the TGI in the experiment with COLO 205 colon was 25.2 µM; in the experiment on OVCAR-5 ovarian, over 100 µM; in the experiment on HL-60(TB) leukemia it was 83.7 µM; in the experiment with SK-OV-3 ovarian it was over 100 µM.

Consider `CN(CCCCCl)P(=O)(OCCS(=O)(=O)CC(NC(=O)CCC(N)C(=O)O)C(=O)NC(C(=O)O)c1ccccc1)OCC1OC(n2ccc(N)nc2=O)C(O)C1O` (stereo unspecified), for which the GI50 in the experiment with RPMI-8226 leukemia was 14.7 µM; with CCRF-CEM leukemia, 0.632 µM; in the experiment on SR leukemia, 1.39 µM; with ACHN renal, 16.7 µM; in the experiment with SK-MEL-5 melanoma, 20.4 µM; with NCI/ADR-RES ovarian, 17.8 µM. In addition, the GI50 in the experiment on COLO 205 colon is 22 µM; with OVCAR-5 ovarian, over 26.1 µM; with HL-60(TB) leukemia, 2.84 µM; with SK-OV-3 ovarian, 57.1 µM. In addition, the TGI in the experiment with RPMI-8226 leukemia was over 68.8 µM; in the experiment on CCRF-CEM leukemia, over 75 µM; in the experiment with SR leukemia, over 51.2 µM; with ACHN renal it was over 75 µM; in the experiment with SK-MEL-5 melanoma, over 75 µM; with NCI/ADR-RES ovarian, over 75 µM. The TGI in the experiment with COLO 205 colon is over 75 µM; with OVCAR-5 ovarian, over 75 µM; in the experiment with HL-60(TB) leukemia it was over 30.3 µM; with SK-OV-3 ovarian, over 75 µM.

Regarding `COC1C(O)CC(OC2CC(OC3CC(O[C@@H]4C(=O)c5c(cc6cc(OC7CC(OC8CC(O)C(O)C(C)O8)C(O)C(C)O7)c(C)c(O)c6c5O)CC4[C@H](OC)C(=O)O)OC(C)C3O)OC(C)C2O)OC1C` (stereo partly specified), the GI50 in the experiment with RPMI-8226 leukemia was 1.73 µM; in the experiment on CCRF-CEM leukemia it was 3.57 µM; with SR leukemia, 0.922 µM; in the experiment with ACHN renal it was 1.09 µM; in the experiment with SK-MEL-5 melanoma it was 1.34 µM; with NCI/ADR-RES ovarian it was 10.3 µM. Besides, the GI50 in the experiment with COLO 205 colon is 1.09 µM; in the experiment with OVCAR-5 ovarian, 4.04 µM; in the experiment on HL-60(TB) leukemia, 5.53 µM; in the experiment with SK-OV-3 ovarian, 2.24 µM. Also, the TGI in the experiment on RPMI-8226 leukemia is over 33.3 µM; in the experiment on CCRF-CEM leukemia, over 33.3 µM; with SR leukemia, over 33.3 µM; in the experiment with ACHN renal, over 33.3 µM; in the experiment with SK-MEL-5 melanoma it was 8.74 µM; with NCI/ADR-RES ovarian, over 33.3 µM. For the same compound, the TGI was 6.9 µM in the experiment on COLO 205 colon, over 33.3 µM with OVCAR-5 ovarian, over 33.3 µM in the experiment with HL-60(TB) leukemia and over 33.3 µM in the experiment with SK-OV-3 ovarian.

For `CC1=CC(C)=NN=C(N)N1S(=O)(=O)c1cc(C)c(Cl)cc1SCc1ccccc1`, the GI50 in the experiment with RPMI-8226 leukemia was 5.93 µM; in the experiment on CCRF-CEM leukemia it was 9.15 µM; in the experiment on SR leukemia, 16.5 µM; in the experiment with ACHN renal, 24.4 µM; in the experiment on SK-MEL-5 melanoma, 40.7 µM; with NCI/ADR-RES ovarian, 8.71 µM. Besides, the GI50 is 27.9 µM in the experiment on COLO 205 colon, over 100 µM in the experiment on OVCAR-5 ovarian, 6.75 µM with HL-60(TB) leukemia and 77.7 µM with SK-OV-3 ovarian. For the same compound, the TGI in the experiment with RPMI-8226 leukemia, in the experiment with CCRF-CEM leukemia, with SR leukemia, in the experiment on ACHN renal, in the experiment on SK-MEL-5 melanoma and with NCI/ADR-RES ovarian was over 100 µM in each case. Further, the TGI with COLO 205 colon, in the experiment on OVCAR-5 ovarian, with HL-60(TB) leukemia and in the experiment on SK-OV-3 ovarian was over 100 µM throughout.

As for `CSc1c(C2=C(c3cn(C)c4ccccc34)C(=O)NC2=O)c2ccccc2n1C`, the GI50 with RPMI-8226 leukemia was 0.813 µM; with CCRF-CEM leukemia, 0.793 µM; in the experiment with SR leukemia it was 0.128 µM; in the experiment on ACHN renal, 0.845 µM; with SK-MEL-5 melanoma, 0.758 µM; in the experiment with NCI/ADR-RES ovarian, 1.02 µM. Besides, the GI50 in the experiment with COLO 205 colon is 0.675 µM; in the experiment on OVCAR-5 ovarian, 23.4 µM; in the experiment on HL-60(TB) leukemia it was 0.703 µM; in the experiment with SK-OV-3 ovarian it was 0.833 µM. Further, the TGI in the experiment with RPMI-8226 leukemia was over 7.04 µM; in the experiment with CCRF-CEM leukemia it was over 17 µM; with SR leukemia it was 1.88 µM; with ACHN renal, over 25 µM; in the experiment on SK-MEL-5 melanoma, 6.88 µM; in the experiment on NCI/ADR-RES ovarian, over 25 µM. Also, the TGI with COLO 205 colon is over 25 µM; in the experiment on OVCAR-5 ovarian, over 25 µM; in the experiment on HL-60(TB) leukemia, 3.55 µM; in the experiment on SK-OV-3 ovarian, over 25 µM.

Turning to `Oc1ccc(Nc2ccc3ccccc3c2)cc1`, the GI50 in the experiment on RPMI-8226 leukemia was 9.61 µM; in the experiment with CCRF-CEM leukemia it was 7.69 µM; with SR leukemia, 3.32 µM; in the experiment on ACHN renal it was 2.46 µM; in the experiment on SK-MEL-5 melanoma, 3.11 µM; with NCI/ADR-RES ovarian, 4.4 µM. Also, the GI50 in the experiment on COLO 205 colon is 17.5 µM; with OVCAR-5 ovarian, 22.7 µM; in the experiment with HL-60(TB) leukemia, 2.66 µM; with SK-OV-3 ovarian, 17.2 µM. The TGI was over 100 µM with RPMI-8226 leukemia; over 100 µM in the experiment with CCRF-CEM leukemia; 38.3 µM in the experiment with SR leukemia; 15.6 µM in the experiment on ACHN renal; 11.2 µM in the experiment on SK-MEL-5 melanoma; 67 µM in the experiment on NCI/ADR-RES ovarian. Moreover, the TGI is 35.4 µM in the experiment with COLO 205 colon, 78.3 µM in the experiment with OVCAR-5 ovarian, 21.3 µM in the experiment on HL-60(TB) leukemia and over 100 µM in the experiment on SK-OV-3 ovarian.

As to `CCN(CC)CCCC(C)Nc1ccnc2cc(Cl)ccc12` (stereo unspecified), the TGI in the experiment on RPMI-8226 leukemia is 69.6 µM; with CCRF-CEM leukemia, over 100 µM; in the experiment on SR leukemia it was 66.2 µM; in the experiment on ACHN renal it was over 100 µM; in the experiment on SK-MEL-5 melanoma, 48.2 µM and 63.3 µM; with NCI/ADR-RES ovarian, over 100 µM. In addition, the TGI with COLO 205 colon was > 100 µM and 38.7 µM; with OVCAR-5 ovarian it was over 100 µM; with HL-60(TB) leukemia, > 100 µM and 34.2 µM; in the experiment on SK-OV-3 ovarian, over 100 µM. Also, the GI50 in the experiment with CCRF-CEM leukemia is 38.8 µM; in the experiment with ACHN renal it was over 100 µM; with SK-MEL-5 melanoma it was 21.9 µM; in the experiment with COLO 205 colon it was 50.8 µM; in the experiment on HL-60(TB) leukemia it was 36.1 µM; in the experiment with SK-OV-3 ovarian it was over 100 µM.
